Assay results published in ChEMBL document CHEMBL1201862, “PubChem BioAssay data set” (2004).
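Method: 48-hour compound exposure of cells in 96-well plates, five concentrations, linear interpolation of endpoints. At the GI50, growth is halved.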 The source made the active and inactive calls. Rule as the data show it: active = GI50 up to about 1.1 µM and inactive = higher.

Columns and labels:
Assay in all cases: NCI anticancer screen, dose series, 48 h
SW-620 = test system: SW-620
CAKI-1 = test system: CAKI-1
SN12C = test system: SN12C
OVCAR-8 = test system: OVCAR-8
NCI-H226 = test system: NCI-H226
SF-268 = test system: SF-268
RPMI-8226 = test system: RPMI-8226
HT-29 = test system: HT-29
SF-295 = test system: SF-295
SNB-19 = test system: SNB-19
NCI-H522 = test system: NCI-H522
OVCAR-3 = test system: OVCAR-3
SF-539 = test system: SF-539
KM-20L2 = test system: KM-20L2
OVCAR-4 = test system: OVCAR-4
ACHN = test system: ACHN
MDA-N = test system: MDA-N
NCI/ADR-RES = test system: NCI/ADR-RES
Hs-578T = test system: Hs-578T
MDA-MB-231 = test system: MDA-MB-231

SMILES	GI50 (SW-620)	GI50 (CAKI-1)	GI50 (SN12C)	GI50 (OVCAR-8)	GI50 (NCI-H226)	GI50 (SF-268)	GI50 (RPMI-8226)	GI50 (HT-29)	GI50 (SF-295)	GI50 (SNB-19)	GI50 (NCI-H522)	GI50 (OVCAR-3)	GI50 (SF-539)	GI50 (KM-20L2)	GI50 (OVCAR-4)	GI50 (ACHN)	GI50 (MDA-N)	GI50 (NCI/ADR-RES)	GI50 (Hs-578T)	GI50 (MDA-MB-231)
CCOc1cc2cnc3c4cc(OC)c(OC)cc4ccc3c2cc1OC	> 100 µM (inactive)	> 100 µM (inactive)	30 µM (inactive)	43.4 µM (inactive)	> 100 µM (inactive)	37.3 µM (inactive)	> 100 µM (inactive)	> 100 µM (inactive)	26.4 µM (inactive)	19.4 µM (inactive)	15.2 µM (inactive)	29.9 µM (inactive)	> 100 µM (inactive)	> 100 µM (inactive)	86.7 µM (inactive)	> 100 µM (inactive)	–	–	–	–
CC(C)(C)C(=O)OC12/C(=N/O)CCCCCC1c1ccccc12 (stereo not given)	17.6 µM (inactive)	11.9 µM (inactive)	19 µM (inactive)	19.3 µM (inactive)	17.7 µM (inactive)	16.4 µM (inactive)	11.9 µM (inactive)	13.3 µM (inactive)	15.6 µM (inactive)	17.4 µM (inactive)	17.8 µM (inactive)	17.4 µM (inactive)	23.2 µM (inactive)	20.2 µM (inactive)	18.9 µM (inactive)	17.9 µM (inactive)	–	–	–	–
CCc1c(CNc2ccc(C(=O)NC(CC(=O)O)C(=O)O)cc2)ccc2nc(N)nc(N)c12 (stereo not given)	< 0.0138 µM (active)	< 0.0198 µM (active)	< 0.0288 µM (active)	< 0.0184 µM (active)	> 100 µM (inactive)	< 0.0198 µM (active)	–	< 0.0178 µM (active)	0.0371 µM (active)	2.39 µM (inactive)	0.914 µM (active)	10.1 µM (inactive)	< 0.0292 µM (active)	0.451 µM (active)	> 48.8 µM (inactive)	< 0.01 µM (active)	< 0.01 µM (active)	0.0288 µM (active)	> 1 mM (inactive)	> 100 µM (inactive)
COc1ccc(N2C(=O)/C(=C/c3ccc(N(CCC#N)CCC#N)cc3C)N=C2/C=C\c2ccccc2)cc1	33.2 µM (inactive)	29.2 µM (inactive)	4.35 µM (inactive)	42.7 µM (inactive)	> 100 µM (inactive)	22.6 µM (inactive)	41.1 µM (inactive)	38.9 µM (inactive)	35.5 µM (inactive)	> 100 µM (inactive)	17 µM (inactive)	> 100 µM (inactive)	10.8 µM (inactive)	4.73 µM (inactive)	47 µM (inactive)	18.6 µM (inactive)	–	–	–	–
COc1cc(C2(C)SCCCS2)c(I)c(OC)c1OC	> 100 µM (inactive)	> 100 µM (inactive)	> 100 µM (inactive)	> 100 µM (inactive)	> 100 µM (inactive)	> 100 µM (inactive)	> 100 µM (inactive)	> 100 µM (inactive)	> 100 µM (inactive)	> 100 µM (inactive)	> 100 µM (inactive)	> 100 µM (inactive)	> 100 µM (inactive)	> 100 µM (inactive)	> 100 µM (inactive)	> 100 µM (inactive)	–	–	–	–
COC(=O)C1=C(C(=O)OC)C2(C)OC1C(=O)C21CC1 (stereo not given)	19.5 µM (inactive)	18.6 µM (inactive)	22.9 µM (inactive)	24 µM (inactive)	> 100 µM (inactive)	54.5 µM (inactive)	16.9 µM (inactive)	18.1 µM (inactive)	44 µM (inactive)	> 100 µM (inactive)	11.2 µM (inactive)	22.1 µM (inactive)	20.7 µM (inactive)	23.7 µM (inactive)	10.6 µM (inactive)	19.3 µM (inactive)	–	–	–	–
OCn1nc2c(C3OCCO3)cc3ccccc3n2c1=S	> 100 µM (inactive)	> 100 µM (inactive)	> 100 µM (inactive)	> 100 µM (inactive)	> 100 µM (inactive)	> 100 µM (inactive)	> 100 µM (inactive)	> 100 µM (inactive)	> 100 µM (inactive)	> 100 µM (inactive)	> 100 µM (inactive)	> 100 µM (inactive)	> 100 µM (inactive)	> 100 µM (inactive)	> 100 µM (inactive)	> 100 µM (inactive)	–	–	–	–
CCCCCCCCCCCCCCCCOP(=O)([O-])OCC[N+](C)(C)C [MILTEFOSINE]	20.8 µM (inactive)	10.3 µM (inactive)	16.1 µM (inactive)	25.8 µM (inactive)	20.7 µM (inactive)	22.1 µM (inactive)	6.1 µM (inactive)	7.8 µM (inactive)	7.69 µM (inactive)	17.7 µM (inactive)	16.4 µM (inactive)	23.9 µM (inactive)	30.5 µM (inactive)	> 10 µM (inactive)	18.2 µM (inactive)	16 µM (inactive)	25.1 µM (inactive)	43.4 µM (inactive)	0.0193 mM (inactive)	21.8 µM (inactive)
